# According to patent US10294202B2, “Pyrrolidinones as herbicides” (FMC Corporation, priority 2013, dated 2019):
# Experiments:
# windgrass = experiment: Test C postemergence herbicide test; assay type: in vivo, Apera spica-venti
# Source text: At the same time, plants selected from these crop and weed species and also barley (winter barley, Hordeum vulgare), […]), chickweed (common chickweed, Stellaria media), deadnettle (henbit deadnettle, Lamium amplexicaule), and canarygrass (littleseed canarygrass, Phalaris minor) were planted in pots containing Redi-Earth® planting medium (Scotts Company, 14111 Scottslawn Road, Marysville, Ohio 43041) comprising spaghnum peat moss, vermiculite, wetting agent and starter nutrients and treated with postemergence applications of test chemicals formulated in the same manner. Plants ranged in height from 2 to 18 cm (1- to 4-leaf stage) for postemergence treatments. Treated plants and controls were maintained in a greenhouse for 13 to 15 days, after which time all species were compared to controls and visually evaluated. Plant response ratings, summarized in Table C, are based on a scale of 0 to 100 where 0 is no effect and 100 is complete control. A dash (-) response means no test result.
# field poppy = experiment: Test D pre-/postemergence herbicide test; assay type: in vivo, Papaver rhoeas; details: for Plant response rating, Field Poppy: scale 0 to 100 (0 no effect, 100 complete control); for Plant response rating: Field Poppy, scale 0 to 100
# Source text: Seeds of plant species selected from bluegrass (annual bluegrass, Poa annua), blackgrass (Alopecurus myosuroides), canarygrass (littleseed canarygrass, Phalaris minor), chickweed (common chickweed, Stellaria media), galium (catchweed bedstraw, Galium aparine), bromegrass, downy (downy bromegrass, Bromus tectorum), field poppy (Papaver rhoeas), field violet (Viola arvensis), foxtail, green (green foxtail, Setaria viridis), deadnettle (henbit deadnettle, Lamium amplexicaule), ryegrass, Italian (Italian ryegrass, Lolium multiflorum), kochia (Kochia scoparia), lambsquarters (Chenopodium album), oilseed rape (Brassica napus), pigweed (Amaranthus retroflexus), chamomile (scentless chamomile, Matricaria inodora), Russian thistle (Salsola kali), speedwell (bird's-eye speedwell, Veronica persica), barley, spring (spring barley, Hordeum vulgare), wheat, spring (spring wheat, Triticum aestivum), buckwheat, wild (wild buckwheat, Polygonum convolvulus), mustard, wild (wild mustard, Sinapis arvensis), oat, wild (wild oat, Avena fatua), radish, wild (wild radish, Raphanus raphanistrum), […]), barley, winter (winter barley, Hordeum vulgare), and wheat, winter (winter wheat, Triticum aestivum) were planted into a silt loam soil and treated preemergence with test chemicals formulated in a non-phytotoxic solvent mixture which included a surfactant. At the same time, these species were planted in pots containing Redi-Earth® planting medium (Scotts Company, 14111 Scottslawn Road, Marysville, Ohio 43041) comprising spaghnum peat moss, vermiculite, wetting agent and starter nutrients and treated with postemergence applications of the test chemicals formulated in the same manner. Plants ranged in height from 2 to 18 cm (1- to 4-leaf stage). Treated plants and controls were maintained in a controlled growth environment for 7 to 21 days after which time all species were compared to controls and visually evaluated. Plant response ratings, summarized in Table D, are based on a scale of 0 to 100 where 0 is no effect and 100 is complete control. A dash (-) response means no test result.
# Rice, W.S. Ind = experiment: Test F flood (paddy) test; assay type: in vivo, Oryza sativa Indica; details: 21 d, scale 0-100
# Source text: (§1) Three plastic pots (ca. 16-cm diameter) per rate were partially filled with sterilized Tama silt loam soil comprising a 35:50:15 ratio of sand, silt and clay and 2.6% organic matter. Separate plantings for each of the three pots were as follows. Seeds from the U.S. of monochoria (Monochoria vaginalis), sedge, umbrella (small-flower umbrella sedge, Cyperus difformis), bulrush, […] bulrush, Scirpus juncoides), and […] (purple […] coccinea), were planted into one 16-cm pot for each rate. Seeds from the U.S. of flatsedge, rice (rice flatsedge, Cyperus iria), sprangletop, Brdd. (bearded sprangletop, Leptochloa fascicularis), one stand of 9 or 10 water seeded rice seedlings (Rice, W.S. Jap, Oryza sativa cv. 'Japonica-[…]' or Rice, W.S. Ind, 'Indica'), and two stands of 3 or 4 seedlings of rice, transplanted (transplanted rice, Oryza sativa cv. 'Japonica-[…]') were planted into one 16-cm pot for each rate. Seeds from the U.S. of barnyardgrass (Echinochloa crus-galli), […] (common […], Alisma plantago-aquatica), and watergrass, late (late watergrass, Echinochloa oryzicola) were planted into one 16-cm pot for each rate. Plantings were sequential so that crop and weed species were at the 2.0 to 2.5-leaf stage at time of treatment. Potted plants were grown in a greenhouse with day/night temperature settings of 30/27° C., and supplemental balanced lighting was provided to maintain a 16-h photoperiod. Test pots were maintained in the greenhouse until test completion. At time of treatment, test pots were flooded to 3 cm above the soil surface, treated by application of test compounds directly to the paddy water, and then maintained at that water depth for the duration of the test. Effects of treatments on rice and weeds were visually evaluated by comparison to untreated controls after 21 d. Plant response ratings, summarized in Table F, are based on a scale of 0 to 100 where 0 is no effect and 100 is complete control. A dash (-) response means no test result.
# rice, transplanted = experiment: Test F flood (paddy) test; assay type: in vivo, Oryza sativa cv. Japonica—M202; details: 21 d, scale 0-100
# Source text: as §1
# barnyardgrass = experiment: Test F flood (paddy) test; assay type: in vivo, Echinochloa crus-galli; details: 21 d, scale 0-100
# Source text: as §1
# [1] = 31 g ai/ha, scale 0 (no effect) to 100 (complete control)
# [2] = 62 g ai/ha, scale 0 to 100 (0 no effect, 100 complete control)
# [3] = 125 g ai/ha, scale 0 to 100 (0 no effect, 100 complete control)
SMILES,"Plant response rating, Field Poppy (field poppy; Preemergence, 62 g ai/ha)","Plant response rating, Field Poppy (field poppy; Preemergence, 31 g ai/ha)","Plant response rating (field poppy; Preemergence, 125 g ai/ha)","Plant response rating (field poppy; Preemergence, 250 g ai/ha)","Plant response rating, Rice, W.S. Ind (Rice, W.S. Ind; 125 g ai/ha)","Plant response rating, Rice, W.S. Ind (Rice, W.S. Ind; 250 g ai/ha)","Plant response rating, Rice, W.S. Ind (Rice, W.S. Ind; 500 g ai/ha)","Plant response rating, Rice, Transplanted (rice, transplanted; 125 g ai/ha)","Plant response rating, Rice, Transplanted (rice, transplanted; 250 g ai/ha)","Plant response rating, Rice, Transplanted (rice, transplanted; 500 g ai/ha)","Plant response rating, Barnyardgrass (barnyardgrass; 125 g ai/ha)","Plant response rating, Barnyardgrass (barnyardgrass; 250 g ai/ha)","Plant response rating, Barnyardgrass (barnyardgrass; 500 g ai/ha)","Plant response rating (field poppy; Postemergence, 31 g ai/ha)","Plant response rating (field poppy; Postemergence, 62 g ai/ha)","Plant response rating (field poppy; Postemergence, 125 g ai/ha)","Plant response rating (field poppy; Postemergence, 250 g ai/ha)",other results
O=C1NCC(c2ccc(F)c(Cl)c2)C1C(=O)Nc1ccccc1F (centres unmarked) [Compound 60],,,,,,,,,,,,,,,,,,"Plant response rating, Windgrass (windgrass; [1]): 0; Plant response rating, Windgrass (windgrass; [2]): 0; Plant response rating, Windgrass (windgrass; [3]): 0"
O=C1NCC(c2ccc(F)c(C(F)(F)F)c2)C1C(=O)Nc1cccc(F)c1F (racemic) [Compound 77],90,75,95,100,,,,,,,,,,,,,,
O=C1NC[C@H](c2cccc(C(F)(F)F)c2)[C@H]1C(=O)Nc1cccc(F)c1F [Compound 206],90,80,,95,25,45,65,0,10,40,100,100,100,,,,,"Plant response rating, Field Poppy (field poppy; Preemergence, 125 g ai/ha): 90; Plant response rating, Rice, W.S. Ind (Rice, W.S. Ind; 64 g ai/ha): 15; Plant response rating, Rice, Transplanted (rice, transplanted; 64 g ai/ha): 0; Plant response rating, Barnyardgrass (barnyardgrass; 64 g ai/ha): 90"
O=C1NCC(c2ccc(F)c(F)c2)C1C(=O)Nc1cccc(F)c1F (racemic) [Compound 101],,,,,20,35,60,0,0,0,85,85,90,,,,,"Plant response rating, Rice, W.S. Ind (Rice, W.S. Ind; 64 g ai/ha): 0; Plant response rating, Rice, Transplanted (rice, transplanted; 64 g ai/ha): 0; Plant response rating, Barnyardgrass (barnyardgrass; 64 g ai/ha): 60"
O=C1NCC(c2ccc(C(F)(F)F)cc2)C1C(=O)Nc1ccccc1F (centres unmarked) [Compound 231],80,80,,95,,,,,,,,,,0,20,0,50,"Plant response rating, Field Poppy (field poppy; Preemergence, 125 g ai/ha): 100"
"O=C1NC[C@H](c2cccc(C(F)(F)F)c2)[C@H]1C(=O)Nc1ccccc1F [Compound 204, (3R,4S)—N-(2-fluorophenyl)-2-oxo-4-[3-(trifluoromethyl)phenyl]-3-pyrrolidinecarboxamide]",85,75,,95,0,10,20,0,0,0,100,100,100,,,,,"Plant response rating, Field Poppy (field poppy; Preemergence, 125 g ai/ha): 80"
O=C1NCC(c2cc(F)c(F)c(F)c2)C1C(=O)Nc1cccc(F)c1F (centres unmarked) [Compound 48],,,,,,,,,,,,,,,,,,"Plant response rating, Windgrass (windgrass; 16 g ai/ha, scale 0 to 100 (0 no effect, 100 complete control)): 0; Plant response rating, Windgrass (windgrass; [1]): 0; Plant response rating, Windgrass (windgrass; [2]): 0; Plant response rating, Windgrass (windgrass; [3]): 0"
"O=C1NCC(c2ccc(C(F)(F)F)cc2)C1C(=O)Nc1cccc(F)c1F (centres unmarked) [Compound 80, N-(2,3-difluorophenyl)-2-oxo-4-[4-(trifluoromethyl)phenyl]-3-pyrrolidinecarboxamide]",100,90,100,100,,,,,,,,,,25,55,20,50,
O=C1NCC(c2ccc(Cl)c(F)c2)C1C(=O)Nc1cccc(F)c1F (centres unmarked) [Compound 52],50,50,,80,,,,,,,,,,0,0,0,0,"Plant response rating, Windgrass (windgrass; [1]): 0; Plant response rating, Windgrass (windgrass; [2]): 0; Plant response rating, Windgrass (windgrass; [3]): 20; Plant response rating, Windgrass (windgrass; 250 g ai/ha, scale 0 to 100 (0 no effect, 100 complete control)): 20; Plant response rating (field poppy; Postemergence, 16 g ai/ha): 0; Plant response rating, Field Poppy (field poppy; Preemergence, 16 g ai/ha): 30"
O=C1NCC(c2ccc(F)c(F)c2)C1C(=O)Nc1ccccc1C(F)(F)F (racemic) [Compound 6],0,0,0,100,,,,,,,,,,0,20,20,30,"Plant response rating (field poppy; Postemergence, 16 g ai/ha): 0"
O=C1NCC(c2ccc(C(F)(F)F)cc2)C1C(=O)Nc1cccc(F)c1F (racemic) [Compound 202],85,85,90,100,,,,,,,,,,0,75,100,100,
O=C1NCC(c2cccc(C(F)F)c2)C1C(=O)Nc1ccccc1F (racemic) [Compound 210],,,,,0,0,0,0,0,0,75,100,100,,,,,
